# Assay results published in patent US20260176285A1, “SALT OF DIOXANE QUINOLINE COMPOUND, CRYSTAL FORM THEREOF, PREPARATION METHODS THEREFOR AND USES THEREOF” (Beijing Scitech-MQ Pharmaceuticals Limited, priority 2022, published 2026).
# Columns and labels:
# [1] = Dynamic solubility in water, SGF, FaSSIF and FeSSIF; format: physicochemical; conditions: for solubility at 1 h / solubility at 2 h / solubility at 4 h / solubility at 24 h: 37 °C, thermodynamic from solid
# Procedure: Biological solvent Preparation • 1. […] 67.5 μL of concentrated hydrochloric acid (12 M) was added and the mixture was adjusted to a pH value of 1.8 with 1 M hydrochloric acid or 1 M NaOH solution. Purified water was added to make up to volume. • 2. Preparation of Fasted State Simulated Intestinal Fluid (FaSSIF): 0.17 g of anhydrous NaH2PO4, 0.021 g of NaOH, and 0.31 g of NaCl were weighed into a 50-mL volumetric flask. About 48 mL of purified water was added to dissolve the mixture completely, and the solution was adjusted to a pH value of 6.5 with 1 M hydrochloric acid or 1 M NaOH solution. Purified water was added to make up to volume. 0.11 g of SIF powder was added and dissolved completely. • 3. Preparation of Fed State Simulated Intestinal Fluid (FeSSIF): 0.41 mL of glacial acetic acid, 0.20 g of NaOH and 0.59 g of NaCl were weighed into a 50-mL volumetric flask. About 48 mL of purified water was added to dissolve the mixture completely, and the solution was adjusted to a pH value of 5.0 with 1 M hydrochloric acid or 1 M NaOH solution. Purified water was added to make up to volume. 0.56 g of SIF powder was added and dissolved completely.
# The dynamic solubility of the free state, the mucate salt crystal form A-I, the p-toluenesulfonate salt crystal form A-II, the di-p-toluenesulfonate salt crystal form A-IV and the phosphate salt crystal form A-V of the compound of formula (I) in water and three biological solvents was evaluated.
# The samples at each time point were centrifuged and filtered (0.45 μm PTFE filter head), and the HPLC concentration and pH value of the filtrate were determined.
# [2] = Hygroscopicity by dynamic moisture sorption (DVS); format: physicochemical; conditions: for Hygroscopicity / Moisture adsorption (25° C./80% RH): DVS
# Procedure: Dynamic moisture sorption (DVS): The curves were collected on a DVS Intrinsic of SMS (Surface Measurement Systems). At 25° C., the humidity range was 0% RH-95% RH, the step was 10% (the last step was 5%), and the dm/dt was 0.002%/min.
# The hygroscopicity of the free compound of formula (I), mucate salt crystal form A-I, p-toluenesulfonate salt crystal forms A-II and B-III, di-p-toluenesulfonate salt crystal form A-IV and phosphate salt crystal form A-V was evaluated by dynamic moisture sorption instrument (DVS). Starting from 0% relative humidity (0% RH), the test collected the mass change percentage of the samples under constant temperature of 25° C. with humidity changes (0% RH-95% RH-0% RH).
# [3] = Solid-state stability evaluation (XRPD, HPLC); format: physicochemical
# Procedure: The following 6 test samples were placed under 25° C./60% RH and 40° C./75% RH conditions for 1 week, and then the physical and chemical stability of the samples was tested by XRPD and HPLC.
# At the same time, after the p-toluenesulfonate salt crystal form A-II and crystal form B-III solids were placed at 80° C. for 24 hours, the physical and chemical stability of the samples were tested by XRPD and HPLC.
# [4] = tested on: human lung cancer cells EBC-1; experiment: Efficacy in nude mouse tumor-bearing model of human lung cancer cells EBC-1; format: in vivo, Balb/c nude mouse
# Excerpt: In this assay, the free compound of formula (I) of the present application and different salts of the compound prepared in Examples 1, 2 and 5 were orally administered to a nude mouse tumor-bearing model of human lung cancer cells EBC-1 to study their effects on tumor growth.
# Preparation of test compounds: an appropriate weight of the test compound (including the free form of the compound of formula (I) and different salts of the compound prepared in Examples 1, 2 and 5) was weighed, completely suspended/dissolved in an appropriate volume of 0.1% sodium carboxymethyl cellulose, stirred and vortexed to give a uniform solution or suspension.
# Methods: All assays were authorized by the Animal Welfare Committee. EBC-1 in the logarithmic growth phase was inoculated into immune-deficient nude mice (BALB/c nude, female, 6-8 weeks old, weighing 18±2 g), subcutaneously on the right back, with a cell inoculation amount of 5×10^6/mouse. After the tumor grew to 150-200 mm^3, the animals were randomly divided into groups, 6 mice per group. The dose of each test substance was set at 15 mg/kg and 7.5 mg/kg (both based on the concentration of the effective formula (I) compound), and administered once a day for about 3 weeks. The test compounds were freshly prepared each day before use. During the assay, the tumor diameter was measured twice a week, and the mice were weighed at the same time. The calculation formula of tumor volume (TV) is: TV=1/2×a×b^2, where a and b represent length and width, respectively. The relative tumor volume (RTV) was calculated based on the measurement results, and the calculation formula is: RTV=Vt/V0, wherein V0 is the tumor volume measured at the time of cage grouping and dosing initiation (i.e., d0), and Vt is the tumor volume at each measurement. The evaluation index of antitumor activity is the relative tumor proliferation rate T/C (%), calculated as follows: T/C (%)=(TRTV/CRTV)×100%, TRTV: RTV of the treatment group; CRTV: RTV of the negative control group. T and C represent the average tumor volume at a certain time point in the drug administration group and the control group, respectively.
# [5] = Equilibrium solubility in water; format: physicochemical; conditions: H2O, room temperature, 24 hours; listed as p-Toluenesulfonate salt crystal form B-III
# Procedure: The sample was centrifuged and filtered, and the filtrate was tested by HPLC.
# [6] = pH 1.8, simulated gastric fluid
# [7] = 40° C./75% RH, 1 week, listed as p-Toluenesulfonate salt crystal form B-III
# [8] = 80° C., 24 hours, listed as p-Toluenesulfonate salt crystal form B-III
structure (smiles),measurement,setting,value
"O=C(Nc1ccc(F)cc1)C1(C(=O)Nc2ccc(Oc3ccnc4cc(OCCCN5CCOCC5)c5c(c34)OCCO5)c(F)c2)CC1 [Free state, N-(3-fluoro-4-((5-(3-morpholinopropoxy)-2,3-dihydro-[1,4]dioxano[2,3-f]quinolin-10-yl)oxy)phenyl)-N-(4-fluorophenyl)cyclopropane-1,1-dicarboxamide]",S (dynamic solubility),[1],<LOQ
same,solubility at 1 h,[1]; [6],5700 µg/mL
same,solubility at 2 h,[1]; [6],5800 µg/mL
same,solubility at 4 h,[1]; [6],5700 µg/mL
same,solubility at 24 h,[1]; [6],5700 µg/mL
same,solubility at 1 h,"[1]; pH 5, fessif",640 µg/mL
same,solubility at 2 h,"[1]; pH 5, fessif",710 µg/mL
same,solubility at 4 h,"[1]; pH 5, fessif",710 µg/mL
same,solubility at 24 h,"[1]; pH 5, fessif",760 µg/mL
same,solubility at 1 h,"[1]; pH 6.5, fassif",1.8 µg/mL
same,solubility at 2 h,"[1]; pH 6.5, fassif",1.9 µg/mL
same,solubility at 4 h,"[1]; pH 6.5, fassif",2.1 µg/mL
same,solubility at 24 h,"[1]; pH 6.5, fassif",2.5 µg/mL
same,pH of the filtrate,"[1]; FaSSIF, 1 hour",6.4
same,pH of the filtrate,"[1]; FaSSIF, 2 hours",6.4
same,pH of the filtrate,"[1]; FaSSIF, 4 hours",6.4
same,pH of the filtrate,"[1]; FaSSIF, 24 hours",6.4
same,pH of the filtrate,"[1]; FeSSIF, 1 hour",4.9
same,pH of the filtrate,"[1]; FeSSIF, 2 hours",5.0
same,pH of the filtrate,"[1]; FeSSIF, 4 hours",5.0
same,pH of the filtrate,"[1]; FeSSIF, 24 hours",5.0
same,pH of the filtrate,"[1]; H2O, 1 hour",6.7
same,pH of the filtrate,"[1]; H2O, 2 hours",5.5
same,pH of the filtrate,"[1]; H2O, 4 hours",6.7
same,pH of the filtrate,"[1]; H2O, 24 hours",7.8
same,pH of the filtrate,"[1]; SGF, 1 hour",3.6
same,pH of the filtrate,"[1]; SGF, 2 hours",3.7
same,pH of the filtrate,"[1]; SGF, 4 hours",3.7
same,pH of the filtrate,"[1]; SGF, 24 hours",3.8
same,Whether the crystal form changes after DVS test,"[2]; 0% RH-95% RH-0% RH, 25° C.",no
same,Hygroscopicity,[2]; 25° C.,Almost no
same,Moisture adsorption (25° C./80% RH),[2],0.11%
same,Change of Crystal form,"[3]; 25° C./60% RH, 1 week",no
same,Purity,"[3]; 25° C./60% RH, 1 week",99.36 area %
same,Purity/initial purity,"[3]; 25° C./60% RH, 1 week",99.9%
same,Change of Crystal form,"[3]; 40° C./75% RH, 1 week",no
same,Purity,"[3]; 40° C./75% RH, 1 week",99.39 area %
same,Purity/initial purity,"[3]; 40° C./75% RH, 1 week",99.9%
same,Change of Crystal form,[3]; Starting,no
same,Purity,[3]; Starting,99.44 area %
same,T/C (relative tumor proliferation rate),"[4]; 7.5 mg/kg oral once a day, day 3",80.2%
same,T/C (relative tumor proliferation rate),"[4]; 7.5 mg/kg oral once a day, day 7",68.3%
same,T/C (relative tumor proliferation rate),"[4]; 7.5 mg/kg oral once a day, day 10",77.9%
same,T/C (relative tumor proliferation rate),"[4]; 7.5 mg/kg oral once a day, day 14",69.3%
same,T/C (relative tumor proliferation rate),"[4]; 7.5 mg/kg oral once a day, day 18",81.3%
same,T/C (relative tumor proliferation rate),"[4]; 7.5 mg/kg oral once a day, day 21",70.68%
same,T/C (relative tumor proliferation rate),"[4]; 15 mg/kg oral once a day, day 3",88.8%
same,T/C (relative tumor proliferation rate),"[4]; 15 mg/kg oral once a day, day 7",76.9%
same,T/C (relative tumor proliferation rate),"[4]; 15 mg/kg oral once a day, day 10",80.4%
same,T/C (relative tumor proliferation rate),"[4]; 15 mg/kg oral once a day, day 14",66.4%
same,T/C (relative tumor proliferation rate),"[4]; 15 mg/kg oral once a day, day 18",72.2%
same,T/C (relative tumor proliferation rate),"[4]; 15 mg/kg oral once a day, day 21",64.60%
"O=C(Nc1ccc(F)cc1)C1(C(=O)Nc2ccc(Oc3ccnc4cc(OCCCN5CCOCC5)c5c(c34)OCCO5)c(F)c2)CC1 [Example 3, N-(3-fluoro-4-((5-(3-morpholinopropoxy)-2,3-dihydro-[1,4]dioxano[2,3-f]quinolin-10-yl)oxy)phenyl)-N-(4-fluorophenyl)cyclopropane-1,1-dicarboxamide]",Solubility (equilibrium),[5],1300 µg/mL
same,Moisture adsorption (25° C./80% RH),[2]; listed as p-Toluenesulfonate salt crystal form B-III,3.13%
same,Hygroscopicity,"[2]; 25° C., listed as p-Toluenesulfonate salt crystal form B-III",Hygroscopic
same,Purity,"[3]; 25° C./60% RH, 1 week, listed as p-Toluenesulfonate salt crystal form B-III",99.68 area %
same,Purity,[3]; [7],99.63 area %
same,Purity/initial purity,[3]; [7],99.8%
same,Change of Crystal form,"[3]; 80° C., 24 hours",no
same,Purity,[3]; [8],99.56 area %
same,Purity/initial purity,[3]; [8],99.8%
same,Purity,"[3]; Starting, listed as p-Toluenesulfonate salt crystal form B-III",99.79 area %
